Patent US8703701B2 (Indiana University Research and Technology Corporation, priority 2009, dated 2014)
Starred links: 1 amine or outer side, 2 acyl side, 3 side chain; linkers in the order of their positions; H or OH if unused. Non-standard residues stand in square brackets, D forms with d. Residues, ends and D or L forms follow the SMILES beside them. Groups on a side chain read outwards from the residue. *: point of attachment. Isobutyryl(2-imidazol-4-yl) = CC(C)(C(=O)*)c1c[nH]cn1; γGlu = O=C(O)[C@H](CCC(=O)[*:2])N[*:1]; Palmitoyl = CCCCCCCCCCCCCCCC(=O)*; Aib = CC(C)(N)C(=O)O

Key:
glucagon receptor = target: T1, glucagon receptor (Homo sapiens, UniProt P47871); experiment: cAMP induction, firefly luciferase reporter assay, glucagon receptor; type: cell-based; conditions: for Activity at Glucagon Receptor % Relative Activity: compared to native glucagon
T1 construct: expressed in transfected cells; host or cells: HEK293
Method: (§1) The ability of each peptide to induce cAMP was measured in a firefly luciferase-based reporter assay.
(§2) At the end of the incubation, 100 μL of LucLite luminescence substrate reagent (Perkin Elmer, Wellesley, Mass.) were added to each well. The plate was shaken briefly, incubated 10 min in the dark and light output was measured on MicroBeta-1450 liquid scintillation counter (Perkin-Elmer, Wellesley, Mass.).

GLP-1 receptor = target: T2, GLP-1 receptor (Homo sapiens, UniProt P43220); experiment: cAMP induction, firefly luciferase reporter assay, GLP-1 receptor; type: cell-based; conditions: for Activity at GLP-1 Receptor % Relative Activity: compared to native GLP-1
T2 construct: expressed in transfected cells; host or cells: HEK293
Method: as §1, §2

[1] = Activity at Glucagon Receptor EC50 [pM], Table 3A
[2] = Activity at GLP-1 Receptor EC50 [pM], Table 3A

T1 sequence (P47871 26-477): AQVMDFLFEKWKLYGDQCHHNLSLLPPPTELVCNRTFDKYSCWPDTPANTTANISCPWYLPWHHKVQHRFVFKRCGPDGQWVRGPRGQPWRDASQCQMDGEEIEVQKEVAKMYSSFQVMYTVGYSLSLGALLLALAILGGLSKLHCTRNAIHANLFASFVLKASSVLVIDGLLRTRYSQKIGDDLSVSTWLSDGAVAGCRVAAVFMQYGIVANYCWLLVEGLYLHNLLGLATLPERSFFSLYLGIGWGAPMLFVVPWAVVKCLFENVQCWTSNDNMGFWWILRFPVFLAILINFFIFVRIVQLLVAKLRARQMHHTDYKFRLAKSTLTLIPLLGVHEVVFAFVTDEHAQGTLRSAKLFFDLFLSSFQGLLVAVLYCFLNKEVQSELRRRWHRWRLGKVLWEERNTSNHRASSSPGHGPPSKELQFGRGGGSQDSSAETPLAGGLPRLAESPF
T2 sequence (P43220 24-463): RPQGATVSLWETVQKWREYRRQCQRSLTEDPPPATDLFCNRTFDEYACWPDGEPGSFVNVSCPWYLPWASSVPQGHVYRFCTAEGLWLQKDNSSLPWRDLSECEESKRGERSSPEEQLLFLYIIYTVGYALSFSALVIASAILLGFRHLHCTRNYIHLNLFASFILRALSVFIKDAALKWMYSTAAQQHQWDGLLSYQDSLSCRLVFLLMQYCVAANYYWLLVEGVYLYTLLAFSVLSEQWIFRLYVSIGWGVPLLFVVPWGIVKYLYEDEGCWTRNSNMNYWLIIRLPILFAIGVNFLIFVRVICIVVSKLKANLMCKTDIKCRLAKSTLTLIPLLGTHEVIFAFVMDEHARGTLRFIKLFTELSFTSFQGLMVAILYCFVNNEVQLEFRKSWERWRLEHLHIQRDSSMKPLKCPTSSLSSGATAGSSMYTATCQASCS

| SMILES | EC50 (glucagon receptor; [1]) [nM] | Activity at Glucagon Receptor % Relative Activity (glucagon receptor; Table 3A) [%] | EC50 (GLP-1 receptor; [2]) [nM] | Activity at GLP-1 Receptor % Relative Activity (GLP-1 receptor; Table 3A) [%] | Activity at Glucagon Receptor % Relative Activity (glucagon receptor; Table 2B) [%] | Activity at GLP-1 Receptor % Relative Activity (GLP-1 receptor; Table 2B) [%] | further results |
| --- | --- | --- | --- | --- | --- | --- | --- |
| CC(C)C[C@H](NC(=O)[C@H](CC(C)C)NC(=O)[C@H](Cc1c[nH]c2ccccc12)NC(=O)[C@H](CS)NC(=O)[C@@H](NC(=O)[C@H](Cc1ccccc1)NC(=O)[C@H](CCC(=O)O)NC(=O)[C@H](CCCCN)NC(=O)[C@H](C)NC(=O)[C@H](CCCNC(=N)N)NC(=O)[C@H](CCCCN)NC(=O)C(C)(C)NC(=O)[C@H](CC(=O)O)NC(=O)[C@H](CC(C)C)NC(=O)[C@H](Cc1ccc(O)cc1)NC(=O)[C@H](CCCCN)NC(=O)[C@H](CO)NC(=O)[C@H](Cc1ccc(O)cc1)NC(=O)[C@H](CC(=O)O)NC(=O)[C@H](CO)NC(=O)[C@@H](NC(=O)[C@H](Cc1ccccc1)NC(=O)[C@@H](NC(=O)CNC(=O)[C@H](CCC(N)=O)NC(=O)[C@@H](CO)NC(=O)[C@@H](N)Cc1c[nH]cn1)[C@@H](C)O)[C@@H](C)O)C(C)C)C(=O)N[C@@H](CC(=O)O)C(=O)NCC(=O)NCC(=O)N1CCC[C@H]1C(=O)N[C@@H](CO)C(=O)N[C@@H](CO)C(=O)NCC(=O)N[C@@H](C)C(=O)N1CCC[C@H]1C(=O)N1CCC[C@H]1C(=O)N1CCC[C@H]1C(=O)N[C@@H](CO)C(N)=O [compound 60] (H-H[dS]QGTFTSDYSKYLD[Aib]KRAKEFVCWLLDGGPSSGAPPPS-NH2; N-terminus assumed) | – | – | – | – | 257 | 19 | EC50 (glucagon receptor; Activity at Glucagon Receptor EC50 (nM), Table 2B): 0.006 nM |
| CCCCCCCCCCCCCCCC(=O)N[C@@H](CCC(=O)NCCCC[C@H](NC(=O)[C@H](CC(=O)O)NC(=O)[C@H](CO)NC(=O)[C@@H](NC(=O)[C@H](Cc1ccccc1)NC(=O)[C@@H](NC(=O)CNC(=O)[C@H](CCC(N)=O)NC(=O)[C@@H](CO)NC(=O)[C@@H](N)Cc1c[nH]cn1)[C@@H](C)O)[C@@H](C)O)C(=O)N[C@@H](CO)C(=O)N[C@@H](CCCCN)C(=O)N[C@@H](Cc1ccc(O)cc1)C(=O)N[C@@H](CC(C)C)C(=O)N[C@@H](CC(=O)O)C(=O)N[C@@H](CCC(=O)O)C(=O)N[C@@H](CCCNC(=N)N)C(=O)N[C@@H](C)C(=O)N[C@@H](C)C(=O)N[C@@H](CCC(N)=O)C(=O)N[C@@H](CC(=O)O)C(=O)N[C@@H](Cc1ccccc1)C(=O)N[C@H](C(=O)N[C@@H](CCC(N)=O)C(=O)N[C@@H](Cc1c[nH]c2ccccc12)C(=O)N[C@@H](CC(C)C)C(=O)N[C@@H](CC(C)C)C(=O)N[C@@H](CC(=O)O)C(=O)N[C@H](C(N)=O)[C@@H](C)O)C(C)C)C(=O)O [compound 51] | 0.0035 | 314 | 0.0039 | 949 | – | – | EC50 (glucagon receptor; Activity at Glucagon Receptor EC50 [nM], Table 6): 0.004 nM; Activity at Glucagon Receptor % Relative Activity (glucagon receptor; Table 6): 314%; EC50 (GLP-1 receptor; Activity at GLP-1 Receptor EC50 [nM], Table 6): 0.004 nM; Activity at GLP-1 Receptor % Relative Activity (GLP-1 receptor; Table 6): 949% |
| CC(C)C[C@H](NC(=O)[C@H](CC(C)C)NC(=O)[C@H](Cc1c[nH]c2ccccc12)NC(=O)[C@H](CS)NC(=O)[C@@H](NC(=O)[C@H](Cc1ccccc1)NC(=O)[C@H](CCC(=O)O)NC(=O)[C@H](CCCCN)NC(=O)[C@H](C)NC(=O)[C@H](CCCNC(=N)N)NC(=O)[C@H](CCCCN)NC(=O)[C@H](CCC(=O)O)NC(=O)[C@H](CC(=O)O)NC(=O)[C@H](CC(C)C)NC(=O)[C@H](Cc1ccc(O)cc1)NC(=O)[C@H](CCCCN)NC(=O)[C@H](CO)NC(=O)[C@H](Cc1ccc(O)cc1)NC(=O)[C@H](CC(=O)O)NC(=O)[C@H](CO)NC(=O)[C@@H](NC(=O)[C@H](Cc1ccccc1)NC(=O)[C@@H](NC(=O)CNC(=O)[C@H](CCC(N)=O)NC(=O)[C@@H](CO)NC(=O)[C@@H](N)Cc1c[nH]cn1)[C@@H](C)O)[C@@H](C)O)C(C)C)C(=O)N[C@@H](CC(=O)O)C(=O)NCC(=O)NCC(=O)N1CCC[C@H]1C(=O)N[C@@H](CO)C(=O)N[C@@H](CO)C(=O)NCC(=O)N[C@@H](C)C(=O)N1CCC[C@H]1C(=O)N1CCC[C@H]1C(=O)N1CCC[C@H]1C(=O)N[C@@H](CO)C(N)=O [compound 61] (H-H[dS]QGTFTSDYSKYLDEKRAKEFVCWLLDGGPSSGAPPPS-NH2; N-terminus assumed) | – | – | – | – | 88 | 39 | – |
| CCCCCCCCCCCCCCCC(=O)N[C@@H](CCC(=O)N[C@@H](CCC(=O)NCCCC[C@H](NC(=O)[C@H](CC(=O)O)NC(=O)[C@H](CO)NC(=O)[C@@H](NC(=O)[C@H](Cc1ccccc1)NC(=O)[C@@H](NC(=O)CNC(=O)[C@H](CCC(N)=O)NC(=O)C(C)(C)NC(=O)[C@@H](N)Cc1c[nH]cn1)[C@@H](C)O)[C@@H](C)O)C(=O)N[C@@H](CO)C(=O)N[C@@H](CCCCN)C(=O)N[C@@H](Cc1ccc(O)cc1)C(=O)N[C@@H](CC(C)C)C(=O)N[C@@H](CC(=O)O)C(=O)N[C@@H](CCC(=O)O)C(=O)N[C@@H](CCCNC(=N)N)C(=O)N[C@@H](C)C(=O)N[C@@H](C)C(=O)N[C@@H](CCC(N)=O)C(=O)N[C@@H](CC(=O)O)C(=O)N[C@@H](Cc1ccccc1)C(=O)N[C@H](C(=O)N[C@@H](CCC(N)=O)C(=O)N[C@@H](Cc1c[nH]c2ccccc12)C(=O)N[C@@H](CC(C)C)C(=O)N[C@@H](CCSC)C(=O)N[C@@H](CC(=O)O)C(=O)N[C@H](C(N)=O)[C@@H](C)O)C(C)C)C(=O)O)C(=O)O [compound 50] | 0.002 | 1000 | 0.005 | 500 | – | – | – |
| CCCCCCCCCCCCCCCC(=O)N[C@@H](CCC(=O)NCCCC[C@H](NC(=O)[C@H](CC(=O)O)NC(=O)[C@H](CO)NC(=O)[C@@H](NC(=O)[C@H](Cc1ccccc1)NC(=O)[C@@H](NC(=O)CNC(=O)[C@H](CCC(N)=O)NC(=O)[C@H](CO)NC(=O)C(C)(C)c1c[nH]cn1)[C@@H](C)O)[C@@H](C)O)C(=O)N[C@@H](CO)C(=O)N[C@@H](CCCCN)C(=O)N[C@@H](Cc1ccc(O)cc1)C(=O)N[C@@H](CC(C)C)C(=O)N[C@@H](CC(=O)O)C(=O)N[C@@H](CCC(=O)O)C(=O)N[C@@H](CCC(N)=O)C(=O)N[C@@H](C)C(=O)N[C@@H](C)C(=O)N[C@@H](CCCCN)C(=O)N[C@@H](CCC(=O)O)C(=O)N[C@@H](Cc1ccccc1)C(=O)N[C@H](C(=O)N[C@@H](CS)C(=O)N[C@@H](Cc1c[nH]c2ccccc12)C(=O)N[C@@H](CC(C)C)C(=O)N[C@@H](CC(C)C)C(=O)N[C@@H](CC(=O)O)C(=O)N[C@H](C(N)=O)[C@@H](C)O)[C@@H](C)CC)C(=O)O [compound 54] ({Isobutyryl(2-imidazol-4-yl)}-SQGTFTSDK([γGlu-Palmitoyl])SKYLDEQAAKEFICWLLDT-NH2) | – | – | – | – | – | – | EC50 (glucagon receptor; Activity at Glucagon Receptor EC50 [nM], Table 5): 0.107 nM; Activity at Glucagon Receptor % Relative Activity (glucagon receptor; Table 5): 35%; Activity at GLP-1 Receptor % Relative Activity (GLP-1 receptor; Table 5): 42% |
